Measurements reported in patent US6627652B1, “Method of treatment with compounds having selective agonist-like activity on RXR retinoid receptors” (Allergan, Inc., priority 1993, dated 2003).
In brackets after ≈: the same amount, converted by molar mass. Entries after “also recorded” stand apart in the source; their conditions may differ. Like-named read-outs stand apart in the source and are kept apart here.

Experiments:
[1] = molecular target: T1, chimeric RXRα receptor (Homo sapiens, UniProt P19793); assay: Cationic Liposome Mediated Transfection Assay (ERE-CAT reporter in HeLa cells), RXRα; type: cell-based; settings: concentration giving 50% of maximum CAT activity of reference AGN 191440
T1 construct: expressed in transfected cells; host or cells: HeLa cells
T1 sequence (P19793 227-458 limits assumed): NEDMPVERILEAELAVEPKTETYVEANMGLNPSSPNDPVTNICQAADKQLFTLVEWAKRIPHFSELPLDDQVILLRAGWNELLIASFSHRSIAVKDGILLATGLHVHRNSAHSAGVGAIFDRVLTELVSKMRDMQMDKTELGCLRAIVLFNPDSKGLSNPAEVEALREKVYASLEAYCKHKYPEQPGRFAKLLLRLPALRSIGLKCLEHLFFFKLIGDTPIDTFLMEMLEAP

[2] = system: gestating ICR mice; assay: in vivo teratology study in gestating ICR mice; set-up: species or system mouse; settings: for teratogenicity (in words): conclusion from Table 2
Experimental: The methodology of the study is described as follows: ICR mice (Ace Animals, Boyertown, Pa.) were used. Mature male and virgin female ICR mice were housed in environmentally controlled rooms and acclimatized to a 12 hour light/dark cycle (light cycle 6 A.M. to 6 P.M.) for 2 weeks prior to use. All animals were maintained on Purina Lab Chow and tap water ad libitum. A group of 3-4 females was caged with a single male of proven fertility for 4 hours. Presence of a vaginal plug immediately afterward was regarded as evidence of successful mating, and this day was designated as day 0 of gestation. […] All animals were killed by cervical dislocation under mild ether anesthesia on day 17 of gestation. Upon laparotomy, the fetuses were examined for external malformations and weighed; one-half of each litter was then fixed in 95% ethanol and processed for staining of the skeleton by the rapid, alizarin red-S dye method. These preparations were examined under a dissection microscope to screen for abnormalities in the axial and the appendicular skeleton. The other half of each litter was fixed in Bouin's solution and examined by freehand razor serial sectioning to screen for anomalies of the brain, face, and palate. Differences in dose-related incidence of malformations and resorptions were assessed by computing percentages of affected conceptuses among total implantation sites. The groups were compared statistically by a method based on Student's t-tests of arcs in square root transformed percentages. Values at 0.05 probability level were considered significant. The median effective dose was calculated by logarithmic curve fitting of the dose-response data.

[3] = system: limb bud mesenchymal cells; assay: inhibition of chondrogenesis in high-density spot cultures of limb bud mesenchymal cells; type: cell-based, mouse; settings: for IC50: Mus musculus
Experimental: An in vitro bioassay which measures inhibition of chondrogenesis (bone formation) in chick embryo cells is considered a classic measure of teratogenecity. The assay is conducted as follows: High-density “spot” cultures of limb bud mesenchymal cells were used to compare the ability of various concentrations of test drugs to suppress chondrogenic differentiation as a bioassay. Forelimb buds of mouse embryos on day 12 of gestation (54±2 somites) were dissociated in a trypsin-EDTA solution, and the resultant single-cell suspension was plated as 20-μl spots (200,000 cells/spot) on plastic culture dishes. Retinoid concentrations ranging from 0.3 ng/ml to 3 μg/ml (1 nM-10 μM) were added to the culture medium (Eagle's MEM+10% fetal bovine serum, GIBCO) 24 hours after initial plating. Control cultures received only the vehicle (ethanol, concentration≦1% by vol); Retinoic acid was used as a positive control in another set of cultures. The cultures were terminated 96 hours after plating, at which time the medium was removed and the cells were fixed for 1 hour in 10% formalin containing 0.5% cetylpyridinium chloride. The cultures were rinsed in acetic acid and stained for 1 hour in 0.5% Alcian blue solution at pH 1.0, differentiated in 3% acetic acid, and then dehydrated in ethanol and scored for chondrogenesis under the microscope. An absence or reduction in the number of cartilage nodules in stained cultures as compared with control cultures was taken as a measure of suppression of chondrogenesis. The number of cartilage nodules stained in the whole spot, mean number of nodules, and standard deviations were calculated for four replicate cultures per treatment. The median concentration causing a 50% inhibition of chondrogenesis compared with controls (IC50) was calculated by logarithmic curve fitting of the dose-response data.

[4] = system: human sebocyte cultures; assay: 3H-thymidine incorporation assay in human sebocyte cultures; type: cell-based; settings: FIG. 3, 8 days of treatment
Experimental: An assay involving human sebocyte cultures measures the inhibition of ^3H-thymidine into cells, and thus measures inhibition of DNA synthesis and thus an anti-proliferative effect on sebocyte (i.e. a sebostatic effect). This assay is also considered a specific assay for effectiveness of a compound as a potential anti-acne drug. The test is conducted as follows. Face-lift or forehead reduction skins from cosmetic surgeries were used as sources of human sebaceous gland cells (sebocytes). Isolated sebocytes were plated in type 1 collagen coated-dishes in DMEM/F12 (1:1) medium supplemented with 8% fetal bovine serum, 2% human serum, 10 ng/ml epidermal growth factor, 1 nM cholera toxin, 1 μM hydrocortisone, and penicillin/streptomycin/amphotericin B. Secondary cultures were prepared by plating Dispase dissociated cells in collagen coated 24-well plates. […] DNA from the cells were extracted by thichoroacetic acid and perchloric acid, and assayed for radioactivity by scintillation counting and for content of DNA by the diphenylamine colorimetric method. The results were expressed as CPM/μg DNA, or as per cent of vehicle control which incorporated about 1,000-1,500 cpm/μg DNA.

[5] = pharmacokinetic study, concentration in maternal plasma and embryo of mice; type: in vivo; settings: oral intubation, single dose of 10 mg/kg, FIG. 8
Experimental: FIG. 8 is a graph showing the concentration of compound AGN 191701 (Compound 1) in nanograms per ml, or nanograms per gram as indicated on the chart, in the plasma and embryo of mice at various times after oral intubation of a single dose of 10 mg/kg of the compound.

[6] = molecular target: T2, chimeric RARβ receptor (Homo sapiens, UniProt P10826); assay: Cationic Liposome Mediated Transfection Assay (ERE-CAT reporter in HeLa cells), RARβ
T2 sequence (P10826 183-417 limits assumed): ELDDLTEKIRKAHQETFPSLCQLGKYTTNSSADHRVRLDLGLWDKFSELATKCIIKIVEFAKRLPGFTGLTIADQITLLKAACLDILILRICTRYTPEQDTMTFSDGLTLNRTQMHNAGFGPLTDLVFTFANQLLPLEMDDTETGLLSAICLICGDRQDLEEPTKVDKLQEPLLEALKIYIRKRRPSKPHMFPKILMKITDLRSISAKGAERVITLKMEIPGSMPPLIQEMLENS

[7] = molecular target: T3, chimeric RARγ receptor (Homo sapiens, UniProt P13631); assay: Cationic Liposome Mediated Transfection Assay (ERE-CAT reporter in HeLa cells), RARγ
T3 sequence (P13631 185-419 limits assumed): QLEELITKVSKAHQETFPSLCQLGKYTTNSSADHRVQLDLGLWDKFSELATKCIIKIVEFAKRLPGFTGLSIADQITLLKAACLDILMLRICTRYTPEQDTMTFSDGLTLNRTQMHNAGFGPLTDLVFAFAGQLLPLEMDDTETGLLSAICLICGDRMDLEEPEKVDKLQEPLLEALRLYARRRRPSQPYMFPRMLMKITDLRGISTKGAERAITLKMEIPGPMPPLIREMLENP

[8] = molecular target: T4, chimeric RARα receptor (Homo sapiens, UniProt P10276); assay: Cationic Liposome Mediated Transfection Assay (ERE-CAT reporter in HeLa cells), RARα
T4 sequence (P10276 183-417 limits assumed): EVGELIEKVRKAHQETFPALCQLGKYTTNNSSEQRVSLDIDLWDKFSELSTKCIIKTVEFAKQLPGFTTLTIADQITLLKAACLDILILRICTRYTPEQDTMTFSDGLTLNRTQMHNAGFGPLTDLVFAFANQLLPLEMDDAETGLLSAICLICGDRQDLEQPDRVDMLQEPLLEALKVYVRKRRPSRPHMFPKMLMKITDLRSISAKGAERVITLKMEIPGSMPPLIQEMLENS

[9] = single oral dose 1 mg/kg on day 11 of gestation
[10] = single oral dose 10 mg/kg on day 11 of gestation
[11] = single oral dose 100 mg/kg on day 11 of gestation
[12] = Table 3, cultures terminated 96 hours after plating, read-out: IC50, 50% inhibition of chondrogenesis
[13] = single oral dose 0.01 mg/kg on day 11 of gestation
[14] = single oral dose 0.1 mg/kg on day 11 of gestation

SMILES: C/C(=C\c1cc(C(=O)O)cs1)c1cc2c(cc1C)C(C)(C)CCC2(C)C [Compound 1, 2-[(E)-2-(5,6,7,8-Tetrahydro-3,5,5,8,8-pentamethylnaphthalen-2-yl)propen-1-yl]thiophene-4-carboxylic Acid]
- EC50 [1]: 67 nM
- teratogenicity (in words) ([2]; listed as AGN 191701): practically not teratogenic; also recorded: very little teratogenic effect
- # Litters Normal [2, 9]: 1
- % Cleft Palate [2, 9]: 0%
- % Limb Defects [2, 9]: 0%
- % Resorbed [2, 9]: 18%
- # Litters Normal [2, 10]: 3
- % Cleft Palate [2, 10]: 0%
- % Limb Defects [2, 10]: 0%
- % Resorbed [2, 10]: 14%
- # Litters Normal [2, 11]: 2
- % Cleft Palate [2, 11]: 19%
- % Limb Defects [2, 11]: 22%
- % Resorbed [2, 11]: 2%
- IC50 [3, 12]: 19 µg/mL (≈ 51.6 µM)
- IC50 ([3]; text b179, read-out: IC50, inhibition of chondrogenesis): 19 µg/mL (≈ 51.6 µM)
- times less teratogenic than Compound 7 in the chondrogenesis assay ([3]; ratio of IC50 values, versus Compound 7): approximately 6.3×10^4 times
- inhibition of 3H-thymidine incorporation in sebocytes (in words) [4]: effective retinoid
- presence in maternal plasma and embryo (in words) [5]: present in substantial concentration in the maternal plasma and in the embryo
- EC50 [6]: 3350 nM
- EC50 [7]: 1070 nM

SMILES: C/C(=C\C=C\c1occc1C(=O)O)c1cc2c(cc1C)C(C)(C)CCC2(C)C [Compound 2]
- EC50 [1]: 1060 nM

SMILES: C/C(=C/C=C/c1occc1C(=O)O)c1cc2c(cc1C)C(C)(C)CCC2(C)C [Compound 3]
- EC50 [1]: 1310 nM

SMILES: C/C(=C\c1ccc(C(=O)O)o1)c1cc2c(cc1C)C(C)(C)CCC2(C)C [Compound 4]
- EC50 [1]: 516 nM
- EC50 [8]: > 10000 nM
- EC50 [6]: > 10000 nM
- EC50 [7]: > 10000 nM

SMILES: C/C(=C\C=C\C1C[C@H]1C(=O)O)c1cc2c(cc1C)C(C)(C)CCC2(C)C (stereo partly drawn) [Compound 5, Cis-[2-[4-Methyl-4-(3,5,5,8,8,-pentamethyl-5,6,7,8-tetrahydronapthalen)-2-yl]-1E,3E-butadien-1-yl] 1-Cyclopropane Carboxylic Acid]
- EC50 [1]: 139 nM

SMILES: C/C(=C\c1ccc(C(=O)O)cc1)c1ccc2c(c1)C(C)(C)CCC2(C)C [Compound 7, reference compound]
- EC50 [1]: > 10000 nM
- teratogenicity (in words) [2]: much more teratogenic than Compound 1
- # Litters Normal [2, 13]: 2
- % Cleft Palate [2, 13]: 29%
- % Limb Defects [2, 13]: 20%
- % Resorbed [2, 13]: 3%
- # Litters Normal [2, 14]: 0
- % Cleft Palate [2, 14]: 100%
- % Limb Defects [2, 14]: 100%
- % Resorbed [2, 14]: 30%
- # Litters Normal [2, 9]: 0
- % Resorbed [2, 9]: 100%
- # Litters Normal [2, 10]: 0
- % Resorbed [2, 10]: 100%
- IC50 [3, 12]: 0.003 µg/mL (≈ 0.00861 µM)
- IC50 ([3]; text b179, read-out: IC50, inhibition of chondrogenesis (unit inferred)): 0.003 µg/mL (≈ 0.00861 µM)
